Laboratory results: patent US20150342876A1, “METHODS AND PHARMACEUTICAL COMPOSITIONS FOR THE TREATMENT OF OCULAR INFLAMMATORY DISEASES” (Institut National de la Santé et de la Recherche Médicale …, priority 2011, published 2015)

Experiments:
Format in all cases: in vivo, Lewis rats
IFN-γ/IL-4 = assay: Chemokine/cytokine multiplex assay of ocular media in EIU: IFN-γ/IL-4; details: compared with control animals treated with the vehicle alone (FIG. 2)
Method: (§1) Aqueous humor and vitreous collected from each eye were pooled, diluted to obtain a final volume of 25 μL, and subjected to multiplex bead analysis. This method uses microspheres as the solid support for immunoassays (Vignali D A. Multiplexed particle-based flow cytometric assays. J Immunol Methods. 2000; 243:243-255.) and allows the titration of a greater number of cytokines with increased sensitivity than occurs with ELISA (Ooi K G, Galatowicz G, Towler H M, Lightman S L, Calder V L. Multiplex cytokine detection versus ELISA for aqueous humor: IL-5, IL-10, and IFNγ profiles in uveitis. Invest Ophthalmol Vis Sci. 2006; 47:272-277.). The rat cytokine/chemokine LINCO-16plex kit (Linco Research) was purchased from Invitrogen (Cergy-Pontoise, France). Chemokine MIP1α/CCL3, proinflammatory mediator TNF-α, cytokines IFN-γ/IL-4, and IL-6 were measured according to the manufacturer's instructions. The assay was performed in a 96-well filter plate with all the assay components provided in the kit. Standard curves for each cytokine were generated with a calibration kit (Bio-Rad, Hercules, Calif.). All incubation steps were performed at room temperature with medium orbital agitation and in the dark to protect the beads from light. Data acquisition and analysis were performed with the manager software version 4.1 (Bioplex; Bio-Rad) with four or five logistic parameters for standard curves. […]

MR = assay: Expression of MR in the iris and ciliary body in EIU (quantitative PCR); details: after intravitreal injection in EIU, p<0.05
Method: (§2) Iris and ciliary body tissues are most involved in the EIU. In an attempt to understand the role of MR and GR in EIU model, we evaluated the expression of these two receptors in quantitative PCR in the iris/ciliary body 3 h, 6 h and 24 h after injection of LPS. We were surprised that the kinetics of MR and GR were not similar. 3 hours after induction of EIU (p<0.001), so before the infiltration of inflammatory cells, there was a decreased expression of MR, which was maintained up to 24 hours (p<0.001). On the contrary the decreased expression of GR was later in the 24th hour (p<0.01). Immunohistochemical studies confirmed the decrease in the rate of receptors in the iris. The decreased expression of MR and GR takes place mainly in the endothelial cells of vessels in the iris and iris stromal cells. At baseline, the binding of endogenous glucocorticoids to MR likely plays a role in anti-inflammatory. The reduction of early MR can be seen as a step prior to the onset of ocular inflammation.
(§3) The expression of MR and GR in the iris and ciliary body is increased after intravitreal injection of aldosterone (p<0.05). […] Presumably, the anti-inflammatory effect of aldosterone in this model is partly due to the increased expression of MR.

IL-6 = assay: Chemokine/cytokine multiplex assay of ocular media in EIU: IL-6; details: compared with control animals treated with the vehicle alone (FIG. 2)
Method: as §1

[1] = system: resident microglial cells of the retina and ciliary body; assay: Anti-IBA-1 immunohistochemistry of resident microglial cells in EIU; details: 24 h after LPS and intravitreal injection, compared to eyes injected with the vehicle
Method: To evaluate the effect of aldosterone on resident microglial cells of the retina and ciliary body, we performed immunohistochemical studies with an anti-IBA-1 antibody coupled with a secondary antibody Alexa488 on cryostat sections 24 h after LPS injection and injection intravitreal aldosterone or spironolactone. […] The anti-inflammatory effect of aldosterone may be related to the deactivation of resident microglial cells.

[2] = system: Endotoxin-induced uveitis; assay: Endotoxin-induced uveitis, clinical score at slit lamp; details: for severity of uveitis (clinical examination): slit lamp 24 hours after LPS
Method: Female Lewis rats (6- to 8-week old) weighing 230-250 g (Elevage Janvier, Le Genest Saint Isle, France) were used and handled in accordance with the ARVO Statement for the Use of Animals in Ophthalmic and Vision Research. Rats were anesthetized with intramuscular injection of ketamine (75 mg kg^−1; Virbac, Carros Cedex, France) and Largactil (0.5 mg kg^−1; Sanofi-aventis, Paris, France) before ocular injection and ET. At the end of the experiments, rats were anesthetized by intraperitoneal injection of pentobarbital (30 mg kg^−1; Sanofi-aventis) before blood collection by intracardiac puncture and then killed with a lethal dose of pentobarbital.
Endotoxin-induced uveitis was induced by footpad injection of 0.1 ml sterile pyrogen-free saline containing 500 μgkg^−1 LPS (from Salmonella typhimurium; Sigma-Aldrich). Animals were examined by slit lamp during the maximal severity of EIU developing in this model 24 h after the footpad injection. The intensity of clinical ocular inflammation was scored on a scale from 0 to 5 for each eye as described previously (Behar-Cohen F F, Parel J M, Pouliquen Y, Thillaye-Goldenberg B, Goureau O, Heydolph S et al. Iontophoresis of dexamethasone in the treatment of endotoxin-induced-uveitis in rats. Exp Eye Res 1997; 65: 533-545.): grade (0) indicates no inflammation; grade 1 indicates the presence of a minimal iris and conjunctival vasodilation but without the observation of flare or cells in the anterior chamber (AC); grade 2 indicates the presence of moderate iris and conjunctival vessel dilation but without evident flare or cells in the AC; grade 3 indicates the presence of intense iris vessels dilation, flare and less than 10 cells per slit lamp field in the AC; grade 4 indicates the presence of more severe clinical signs than grade 3, with more than 10 cells in the AC with or without the formation of a hypopyon; grade 5 indicates the presence of intense inflammatory reaction, fibrin formation in the AC and total seclusion of the pupil.
Clinical evaluation was performed in a masked manner by two observers. The mean clinical score of the two observers was recorded.
Lewis rats were anesthetized by intraperitoneal injection of 0.15 mL pentobarbital (5.47 g/100 mL saline). Pupils were dilated by instillation of one drop of tropicamide 5%. One drop of tetracaine 1% was administered for local anesthesia. Intravitreal injections (10 μL) of aldosterone (20 nM and 200 nM) and spironolactone (10 μM) were performed in both eyes using sterile syringes fitted with a 30-gauge needle (Microfine; Becton Dickinson AG, Meylan, France). Intravitreal injections were performed simultaneously with EIU induction, as described.
Results are expressed as mean±SEM. The Mann-Whitney U test was used to determine differences between groups. […]

TNF-α = assay: Chemokine/cytokine multiplex assay of ocular media in EIU: TNF-α; details: compared with control animals treated with the vehicle alone (FIG. 2)
Method: as §1

GR = assay: Expression of GR in the iris and ciliary body in EIU (quantitative PCR); details: after intravitreal injection in EIU
Method: as §2, §3

macrophages = assay: EDI positive cell counts in histological sections (immunohistochemistry) in EIU; details: intravitreal 200 nM, 24 h after LPS, compared to eyes injected vehicle or spironolactone, p<0.05
Method: To evaluate the effect of intravitreal injection of 200 nM aldosterone and spironolactone 10 μM, immunohistochemical studies were performed on cryostat sections. An anti EDI antibody coupled with an Alexa488 secondary antibody was used to mark macrophages which are among the cells most involved in EIU. We conducted an EDI positive cell counts in histological sections 24 h after LPS injection and intravitreal injection of aldosterone or spironolactone.

blood-ocular barrier = assay: Proteins present in eye fluids (leaking of the blood-ocular barrier) in EIU; details: at 6 hours, versus vehicle
Description: Proteins present in eye fluids reflect the leaking of the blood-ocular barrier.

MIP1α/CCL3 = assay: Chemokine/cytokine multiplex assay of ocular media in EIU: MIP1α/CCL3; details: compared with control animals treated with the vehicle alone (FIG. 2)
Method: as §1

With `C[C@]12CCC(=O)C=C1CC[C@@H]1[C@@H]2[C@@H](O)C[C@]2(C=O)[C@@H](C(=O)CO)CC[C@@H]12` [aldosterone, 11β,21-dihydroxy-3,20-dioxopregn-4-en-18-al] the “IFN-γ/IL-4 in the ocular media” value (IFN-γ/IL-4) was “significantly reduced”, the “expression of MR in the iris and ciliary body” value (MR) was “increased” and the “IL-6 in the ocular media” value (IL-6) was “significantly reduced”. For the same compound, the “state of microglial cells (IBA-1)” value [1] was “greater number of microglial cells were then branched into a latent state”, the “severity of uveitis (clinical examination)” value (“severity of uveitis” below) ([2]; injection 1 nM) was “had no effect” and the “severity of uveitis” value ([2]; intravitreal injection 20 nM, p<0.05) was “severity decrease statistically significant”. For the same compound, the “severity of uveitis” value ([2]; intravitreal injection 200 nM, p<0.001) was “severity decrease statistically significant”, the “TNF-α in the ocular media” value (TNF-α) was “significantly reduced” and the “expression of GR in the iris and ciliary body” value (GR) was “increased”. The “number of macrophages (EDI positive cell counts)” value (macrophages) was “decrease in the number of macrophages”, the “rate of protein in eye fluids” value (blood-ocular barrier) was “significantly reduced” and the “MIP1α/CCL3 in the ocular media” value (MIP1α/CCL3) was “significantly reduced”.

For `CC(=O)S[C@@H]1CC2=CC(=O)CC[C@]2(C)[C@H]2CC[C@@]3(C)[C@@H](CC[C@@]34CCC(=O)O4)[C@H]12` [spironolactone], the “IFN-γ/IL-4 in the ocular media” value (IFN-γ/IL-4) was “significantly increased”, the “expression of MR in the iris and ciliary body” value (MR) was “exacerbated the decrease in MR” and the “IL-6 in the ocular media” value (IL-6) was “significantly increased”. The “state of microglial cells (IBA-1)” value [1] was “larger number of microglial cells were round, and consequently active”, the “intensity of uveitis (clinical examination)” value ([2]; intravitreal injection 10 microM, 24 hours) was “increased the intensity of uveitis” and the “TNF-α in the ocular media” value (TNF-α) was “significantly increased”. For the same compound, the “expression of GR in the iris and ciliary body” value (GR) was “has no effect”, the “rate of protein in eye fluids” value (blood-ocular barrier) was “had no effect” and the “MIP1α/CCL3 in the ocular media” value (MIP1α/CCL3) was “significantly increased”.
